Tested on: TNFα
Assay: Ex-vivo lipopolysaccharide (LPS) stimulated TNFα in whole blood
Parameters: species or system human
Conditions: Day 32, geometric mean (%CV)
Text: A patient had to have a minimum of one acceptable sputum sample on Day 20, 26 or 32 to be included in the sputum biomarker evaluation for that treatment period, with the available cell count and biomarker data averaged for each patient. The mean change from baseline (pre-dose on Day 1 of each treatment period) was then compared between treatments using an analysis of covariance (ANCOVA) that included treatment, patient and period as fixed effects, and baseline values as covariate. The mean change from baseline to Day 32 for biomarkers in blood were analysed using the same model as for sputum data. All data were log-transformed before analysis, and the results are presented as ratio of geometric means. […]
Approximately 80 to 100 cells were to be counted per square , with the number of live leukocytes, dead leukocytes and squamous cells counted. […]
Only one of the sputum samples induced at 2 h post-dose on Days 20, 26 or 32 was used to evaluate CHF6001 concentration, with the evaluation performed only if a minimum of 300 mg of residual sputum remained. […] The concentration of CHF6001 was evaluated using a LC-MS/MS method following solid phase extraction. […]
The levels of inflammatory biomarkers were evaluated from blood collected at 2 h post-dose […]
Levels of biomarkers were assessed as follows: […]
• Serum SP-D: Sandwich Immunoassay, using PheraSTAR Plate Reader . […]

In the case of `CS(=O)(=O)Nc1ccc(C(=O)O[C@@H](Cc2c(Cl)c[n+]([O-])cc2Cl)c2ccc(OC(F)F)c(OCC3CC3)c2)cc1OCC1CC1` [CHF6001], the “Tumour necrosis factor α ex-vivo, post-baseline” value (800 µg BID) was 2096.916 (177.0) pg/mL and the “Tumour necrosis factor α ex-vivo, post-baseline” value (1600 µg BID) was 1750.418 (192.0) pg/mL.

Source: PMC6688371, “Effect of the inhaled PDE4 inhibitor CHF6001 on biomarkers of inflammation in COPD” (Respiratory Research, 2019)
